Patent US6562820B2, “Method for treatment and prevention of mastitis” (Pharmacia & Upjohn Company, priority 2000, dated 2003)

Assays:
Assay type in all cases: in vivo
[1] = system: cow in dry period with moderate mastitis; experiment: Treatment of mastitis in a dry-period cow by intramammary infusion; conditions: 3-lactation cow in dry period, 300 mg once per day for 5 days, solution
Experimental: A 3-lactation cow in dry period with moderate mastitis is administered 300 mg of the oxazolidinone in EXAMPLE 1, once per day for 5 days. The oxazolidinone is formulated as a solution and administered by intramammary infusion.

[2] = system: cow without mastitis; experiment: Prevention of mastitis in a cow at the start of dry off period by intramammary infusion; conditions: 2-lactation cow without mastitis, single dose of 250 mg at start of dry off period, solution, mastitis occurs in untreated dry cows of same herd
Experimental: A 2-lactation cow without mastitis is administered a single dose of 250 mg of the oxazolidinone in EXAMPLE 2 at the start of dry off period. The oxazolidinone is formulated as a solution and administered by intramammary infusion. Although mastitis occurs in other dry cows that are in the same herd but are not treated with the oxazolidinones, the cow treated is not infected.

[3] = system: cow in lactation with moderate mastitis; experiment: Treatment of mastitis in a lactating cow with oxazolidinone plus bovine lactoferrin by intramammary infusion; conditions: 3-lactation cow in lactation, 300 mg in combination with 3 g bovine lactoferrin once per day for 5 consecutive days, composite suspension
Experimental: A 3-lactation cow in lactation with moderate mastitis is administered 300 mg of the oxazolidinone in EXAMPLE 2 in combination with administration of 3 g of bovine lactoferrin, once per day for 5 consecutive days. The oxazolidinone and the lactoferrin are prepared in a composite suspension formulation and administered by intramammary infusion.

Row | Structure (SMILES) | mastitis status at the end of the treatment [1] | occurrence of mastitis infection in treated cow [2] | mastitis status at the end of the treatment [3]
1 | CC(=O)NC[C@H]1CN(c2ccc(N3CCOCC3)c(F)c2)C(=O)O1 [EXAMPLE 1, (S)-N-[[3-[3-fluoro-4-(4-morpholinyl)phenyl]-2-oxo-5-oxazolidinyl]methyl]acetamide] | the mastitis is gone | – | –
2 | CC(=O)NC[C@H]1CN(c2ccc(N3CCSCC3)c(F)c2)C(=O)O1 [EXAMPLE 2, N-[[(5S)-3-[3-fluoro-4-(4-thiomorpholinyl)phenyl]-2-oxo-1,3-oxazolidin-5-yl]methyl]acetamide] | – | not infected | the mastitis is gone
